Test results: US20240307351A1, “AGENT FOR ANTI-AGING OR FOR CELLULAR REJUVENATION” (TOHOKU UNIVERSITY, priority 2022, published 2024)

Legend:
SIRTI protein = assay: Amount of SIRT1 protein in RH30 cells by Western blotting; type: cell-based, human; details: 30 μM, 24 hours, compared with Control group (DMSO)
Description: RH30 cells (human rhabdomyosarcoma cell line; gli gene expression+, N-myc gene expression+) at 1×10^6 cell/dish were seeded and cultured in a dish containing 10 mL of a culture solution (low-glucose-containing DMEM medium (glucose concentration of 1.0 g/dL) to which 10 wt. % of FBS was added). One day later, Compound #5 was added to have a concentration of 30 μM, and the mixture was cultured for 24 hours ([Compound #5 addition group]). Compound #9, Compound #13, Compound #21, Compound #30, or Compound #35 as the present compound was added in place of Compound #5, and the mixture was cultured in the same manner, respectively, as [Compound #9 addition group], [Compound #13 addition group], [Compound #21 addition group], [Compound #30 addition group], and […].
On the other hand, as a control, DMSO (dimethyl sulfoxide) was added to have a concentration of 0.2 wt. %, and the mixture was cultured for 24 hours ([Control group]).
After completion of culture, the cells were recovered, disrupted by a typical method, and the amount of each of the proteins (SIRTI proteins, etc.) in the cells was detected by Western blotting. Further, the results of quantification of each band in the detection results of the Western blotting in FIG. 6 through normalization with the band of β-actin as a loading control are shown in FIG. 7.

[1] = Liver function markers in blood of C57BL6 mice; type: in vivo, mouse; details: C57BL6 mice (8 weeks old), oral, 50 or 150 mg/kg/day, 7 days, vs DMSO corn oil
Description: Compound #4 of DMSO corn oil was orally administered to C57BL6 mice (8 weeks old) at a dose of 50 mg/kg/day per kg of mouse weight for 7 days ([Group L]).
In addition, Compound #4 of DMSO corn oil was orally administered to C57BL6 mice (8 weeks old) at a dose of 150 mg/kg/day per kg of mouse weight for 7 days ([Group H]).
Further, DMSO corn oil was orally administered to C57BL6 mice (8 weeks old) for 7 days ([Control group]).

CC(C)(C)OC(=O)NCCCCCCC(C)(C(=O)O)c1c[nH]c2ccccc12 (centres unmarked) [Compound #13]
amount of SIRTI protein in cells (SIRTI protein): increased

CC(=O)N1CCC(CC(C(=O)O)c2c[nH]c3ccccc23)CC1 (centres unmarked) [Compound #9]
amount of SIRTI protein in cells (SIRTI protein): increased

CCCCCCn1cc(CC(=O)O)c2ccccc21 [Compound #30]
amount of SIRTI protein in cells (SIRTI protein): increased

O=C(CC(C(=O)O)c1c[nH]c2ccccc12)c1ccc(F)cc1 (centres unmarked) [Compound #4]
GOT in blood [1]: decreased
GPT in blood [1]: decreased
